Reference: ChEMBL document CHEMBL1129930, “Analogues of methotrexate in rheumatoid arthritis. 2. Effects of 5-deazaaminopterin, 5,10-dideazaaminopterin, and analogues on type II collagen-induced arthritis in mice” (J Med Chem, 1997)

How the values were obtained:
Assay type in all cases: functional
[1] = Concentration required to inhibit the growth of chang liver cells.; settings: Homo sapiens
Mus musculus [2] = test: Incidence of disease (mouse type II collagen) was scored as the percentage of animals within each experimental group that exhibited joint or limb inflammation on day 37 at intraperitoneal dose of 0.75 mg/kg (deaths observed at 1.5 mg/kg)
Mus musculus [3] = test: Incidence of disease (mouse type II collagen) was scored as the percentage of animals within each experimental group that exhibited joint or limb inflammation on day 23 at intraperitoneal dose of 0.047 mg/kg (deaths observed at 1.5 mg/kg)
Mus musculus [4] = test: Incidence of disease (mouse type II collagen) was scored as the percentage of animals within each experimental group that exhibited joint or limb inflammation on day 23 at intraperitoneal dose of 0.38 mg/kg (deaths observed at 1.5 mg/kg)
Mus musculus [5] = test: Incidence of disease (mouse type II collagen) was scored as the percentage of animals within each experimental group that exhibited joint or limb inflammation on day 23 at intraperitoneal dose of 0.75 mg/kg (deaths observed at 1.5 mg/kg)
Mus musculus [6] = test: Incidence of disease (mouse type II collagen) was scored as the percentage of animals within each experimental group that exhibited joint or limb inflammation on day 30 at intraperitoneal dose of 0.024 mg/kg (deaths observed at 1.5 mg/kg)
Mus musculus [7] = test: Incidence of disease (mouse type II collagen) was scored as the percentage of animals within each experimental group that exhibited joint or limb inflammation on day 30 at intraperitoneal dose of 0.047 mg/kg (deaths observed at 1.5 mg/kg)
Mus musculus [8] = test: Incidence of disease (mouse type II collagen) was scored as the percentage of animals within each experimental group that exhibited joint or limb inflammation on day 30 at intraperitoneal dose of 0.094 mg/kg (deaths observed at 1.5 mg/kg)
Mus musculus [9] = test: Incidence of disease (mouse type II collagen) was scored as the percentage of animals within each experimental group that exhibited joint or limb inflammation on day 44 at intraperitoneal dose of 0.094 mg/kg (deaths observed at 1.5 mg/kg)
Mus musculus [10] = test: Incidence of disease (mouse type II collagen) was scored as the percentage of animals within each experimental group that exhibited joint or limb inflammation on day 44 at intraperitoneal dose of 0.19 mg/kg (deaths observed at 1.5 mg/kg)
Mus musculus [11] = test: Incidence of disease (mouse type II collagen) was scored as the percentage of animals within each experimental group that exhibited joint or limb inflammation on day 44 at intraperitoneal dose of 0.38 mg/kg (deaths observed at 1.5 mg/kg)
Mus musculus [12] = test: Incidence of disease (mouse type II collagen) was scored as the percentage of animals within each experimental group that exhibited joint or limb inflammation on day 44 at intraperitoneal dose of 0.75 mg/kg (deaths observed at 1.5 mg/kg)
Mus musculus [13] = test: Incidence of disease (mouse type II collagen) was scored as the percentage of animals within each experimental group that exhibited joint or limb inflammation on day 44 at intraperitoneal dose of 0.024 mg/kg (deaths observed at 1.5 mg/kg)
Mus musculus [14] = test: Incidence of disease (mouse type II collagen) was scored as the percentage of animals within each experimental group that exhibited joint or limb inflammation on day 44 at intraperitoneal dose of 0.047 mg/kg (deaths observed at 1.5 mg/kg)
Mus musculus [15] = test: Incidence of disease (mouse type II collagen) was scored as the percentage of animals within each experimental group that exhibited joint or limb inflammation on day 30 at intraperitoneal dose of 0.19 mg/kg (deaths observed at 1.5 mg/kg)
Mus musculus [16] = test: Incidence of disease (mouse type II collagen) was scored as the percentage of animals within each experimental group that exhibited joint or limb inflammation on day 30 at intraperitoneal dose of 0.38 mg/kg (deaths observed at 1.5 mg/kg)
Mus musculus [17] = test: Incidence of disease (mouse type II collagen) was scored as the percentage of animals within each experimental group that exhibited joint or limb inflammation on day 30 at intraperitoneal dose of 0.75 mg/kg (deaths observed at 1.5 mg/kg)
Mus musculus [18] = test: Incidence of disease (mouse type II collagen) was scored as the percentage of animals within each experimental group that exhibited joint or limb inflammation on day 37 at intraperitoneal dose of 0.38 mg/kg (deaths observed at 1.5 mg/kg)
Mus musculus [19] = test: Tested for antiinflammatory activity on mouse type II collagen arthritis as Paw swelling of all animals in each group on day 23 at intraperitoneal dose of 0.047 mg/kg
Mus musculus [20] = test: Tested for antiinflammatory activity on mouse type II collagen arthritis as Paw swelling of all animals in each group on day 23 at intraperitoneal dose of 0.094 mg/kg
Mus musculus [21] = test: Tested for antiinflammatory activity on mouse type II collagen arthritis as Paw swelling of all animals in each group on day 23 at intraperitoneal dose of 0.19 mg/kg
Mus musculus [22] = test: Tested for antiinflammatory activity on mouse type II collagen arthritis as Paw swelling of all animals in each group on day 23 at intraperitoneal dose of 0.75 mg/kg
Mus musculus [23] = test: Tested for antiinflammatory activity on mouse type II collagen arthritis as Paw swelling of all animals in each group on day 30 at intraperitoneal dose of 0.024 mg/kg
Mus musculus [24] = test: Tested for antiinflammatory activity on mouse type II collagen arthritis as Paw swelling of all animals in each group on day 30 at intraperitoneal dose of 0.047 mg/kg
Mus musculus [25] = test: Tested for antiinflammatory activity on mouse type II collagen arthritis as Paw swelling of all animals in each group on day 30 at intraperitoneal dose of 0.094 mg/kg
Mus musculus [26] = test: Tested for antiinflammatory activity on mouse type II collagen arthritis as Paw swelling of all animals in each group on day 44 at intraperitoneal dose of 0.024 mg/kg
Mus musculus [27] = test: Tested for antiinflammatory activity on mouse type II collagen arthritis as Paw swelling of all animals in each group on day 44 at intraperitoneal dose of 0.094 mg/kg
Mus musculus [28] = test: Tested for antiinflammatory activity on mouse type II collagen arthritis as Paw swelling of all animals in each group on day 44 at intraperitoneal dose of 0.19 mg/kg
Mus musculus [29] = test: Tested for antiinflammatory activity on mouse type II collagen arthritis as Paw swelling of all animals in each group on day 44 at intraperitoneal dose of 0.38 mg/kg
Mus musculus [30] = test: Tested for antiinflammatory activity on mouse type II collagen arthritis as Paw swelling of all animals in each group on day 37 at intraperitoneal dose of 0.047 mg/kg
Mus musculus [31] = test: Tested for antiinflammatory activity on mouse type II collagen arthritis as Paw swelling of all animals in each group on day 37 at intraperitoneal dose of 0.094 mg/kg
Mus musculus [32] = test: Tested for antiinflammatory activity on mouse type II collagen arthritis as Paw swelling of all animals in each group on day 37 at intraperitoneal dose of 0.19 mg/kg
Mus musculus [33] = test: Tested for antiinflammatory activity on mouse type II collagen arthritis as Paw swelling of all animals in each group on day 37 at intraperitoneal dose of 0.75 mg/kg

Compound: CCc1c(CN(C)c2ccc(C(=O)NC(CCC(=O)O)C(=O)O)cc2)cnc2nc(N)nc(N)c12 (stereo not drawn)
- IC50 [1]: 89 nM
- Animals (Mus musculus [2]): 14%
- Animals (Mus musculus [3]): 0%
- Animals (Mus musculus [4]): 0%
- Animals (Mus musculus [5]): 0%
- Animals (Mus musculus [6]): 0%
- Animals (Mus musculus [7]): 12%
- Animals (Mus musculus [8]): 12%
- Animals (Mus musculus [9]): 25%
- Animals (Mus musculus [10]): 12%
- Animals (Mus musculus [11]): 0%
- Animals (Mus musculus [12]): 14%
- Animals (Mus musculus [13]): 25%
- Animals (Mus musculus [14]): 88%
- Animals (Mus musculus [15]): 12%
- Animals (Mus musculus [16]): 0%
- Animals (Mus musculus [17]): 14%
- Animals (Mus musculus [18]): 0%
- Paw swelling (Mus musculus [19]): 2.1 mm
- Paw swelling (Mus musculus [20]): 2.15 mm
- Paw swelling (Mus musculus [21]): 2.11 mm
- Paw swelling (Mus musculus [22]): 2.14 mm
- Paw swelling (Mus musculus [23]): 2.22 mm
- Paw swelling (Mus musculus [24]): 2.21 mm
- Paw swelling (Mus musculus [25]): 2.14 mm
- Paw swelling (Mus musculus [26]): 2.23 mm
- Paw swelling (Mus musculus [27]): 2.27 mm
- Paw swelling (Mus musculus [28]): 2.2 mm
- Paw swelling (Mus musculus [29]): 2.15 mm
- Paw swelling (Mus musculus [30]): 2.33 mm
- Paw swelling (Mus musculus [31]): 2.2 mm
- Paw swelling (Mus musculus [32]): 2.17 mm
- Paw swelling (Mus musculus [33]): 2.2 mm
